# Assay results from patent publication US20200253877A1, “GEMCABENE, PHARMACEUTICALLY ACCEPTABLE SALTS THEREOF, COMPOSITIONS THEREOF AND METHODS OF USE THEREFOR” (NEUROBO PHARMACEUTICALS, INC., priority 2018, published 2020).
# Tests used:
# [1] = test system: STAM™ mice, a murine model of NASH-HCC; test: Murine STAM model of NASH-HCC: liver histology (H&E, NAFLD Activity Score, Sirius red fibrosis area); assay type: in vivo, mouse; parameters: key to NAS (mean ± SD) / NAFLD Activity Score: NAS = unweighted sum of steatosis, lobular inflammation, ballooning scores; settings: for fibrosis area (Sirius red-positive area): all gemcabene Form 1 groups (30, 100, 300 mg/kg)
# Excerpt: The present invention further provides methods for reducing a fibrosis score or a nonalcoholic fatty liver disease activity score in a subject, comprising administering to a subject in need thereof an effective amount of a tablet of the invention, gemcabene calcium salt hydrate Crystal Form 4, gemcabene calcium salt hydrate Crystal Form 5 or gemcabene calcium salt hydrate Crystal Form 6. The nonalcoholic fatty liver disease activity score (NAS or NAFLD score) is a composite score that measures changes in NAFLD during therapeutic trials. NAS is a composite score comprised of three components that includes scores for steatosis, lobular inflammation and hepatocyte ballooning (Table 36). NAS is the unweighted sum of the scores for steatosis, lobular inflammation and hepatocyte ballooning. Steatosis grade is quantified as the percentage of hepatocytes that contain fat droplets. The fibrosis stage of the liver is evaluated separately from NAS by histological evaluation of the intensity of Sirius red staining of collagen in the pericentral region of liver lobules.
# A study was performed to evaluate the efficacy of gemcabene calcium salt hydrate Crystal Form 1 having a PSD90 of 52 μm as measured by laser light diffraction, in treating non-alcoholic steatosis hepatitis (NASH) in the murine STAM™ model of NASH-HCC.
# Briefly, two-day old neonatal C57BL/6 male mice were administered low-dose streptozotocin (STZ), and were subsequently fed a HFC diet from 4 weeks of age. In this model, the mice typically develop liver steatosis and diabetes, reaching steatohepatitis within 3 weeks, followed by cirrhosis within 8 weeks, and carcinoma within 16 weeks. In the current study, mice were administered daily oral gemcabene calcium salt hydrate Crystal Form 1 starting at week 6 of age and were sacrificed at week 9. […] These STAM™ groups were orally administered from week 6 one of the following: water-vehicle, gemcabene calcium salt hydrate Crystal Form 1 at 30, 100 and 300 mg/kg daily, or telmisartan ([…]®) 10 mg/kg daily. […] All groups were sacrificed at week 9. Vehicle, gemcabene calcium salt hydrate Crystal Form 1, or telmisartan were administered by oral gavage once daily.
# For Hematoxylin and Eosin (H&E) staining, sections were cut from paraffin blocks of liver tissue prefixed in Bouin's solution and stained with Lillie-Mayer's Hematoxylin (Muto Pure Chemicals Co., Ltd., Japan) and eosin solution (Wako Pure Chemical Industries). NAFLD Activity score (NAS) was calculated according to the criteria of Kleiner, D E. Et al., Hepatology, 2005; 41:1313-1321. To visualize collagen deposition, Bouin's fixed liver sections were stained using picro-Sirius red solution (Waldeck, Germany). For Masson Trichrome staining, the sections were stained with Masson's Trichrome staining Kit (Sigma, USA) according to the manufacturer's instructions.
# For quantitative analysis of fibrosis area, bright field images of Sirius red-stained sections were captured around the central vein using a digital camera (DFC295; Leica, Germany) at 200-fold magnification, and the positive areas in 5 fields/section were measured using ImageJ software (National Institute of Health, USA). Samples were analyzed in a blinded fashion.
# [2] = test system: STAM™ mice, a murine model of NASH-HCC; test: Murine STAM model of NASH-HCC: whole blood, plasma and liver biochemistry; settings: for fasting whole blood glucose concentrations: 3 days prior to termination, 8 h fasting, oral daily wk 6-9; for fasting whole blood glucose concentrations / whole blood glucose levels / liver triglyceride content: gemcabene Form 1 30, 100, 300 mg/kg; for plasma ALP levels: vs vehicle-treated NASH group; for plasma triglyceride concentrations: gemcabene Form 1 30, 100, 300 mg/kg (dose-dependent manner)
# [3] = vs vehicle-treated STAM mice, telmisartan 10 mg/kg
# [4] = vs vehicle-treated STAM mice, gemcabene Form 1 30 and 300 mg/kg, telmisartan 10 mg/kg
# [5] = 10 mg/kg PO QD, Day 18 after 8 hours of fasting, mean ± SD, n = 8
# [6] = 10 mg/kg PO QD, at termination (Day 21), mean ± SD, n = 7
# [7] = at termination, gemcabene Form 1 100 and 300 mg/kg, telmisartan 10 mg/kg
# [8] = at termination, vs vehicle-treated STAM mice, telmisartan 10 mg/kg
# [9] = vs vehicle-treated STAM mice, gemcabene Form 1 100 and 300 mg/kg, telmisartan 10 mg/kg
compound,measurement,setting,value
"CCCc1nc2c(C)cc(-c3nc4ccccc4n3C)cc2n1Cc1ccc(-c2ccccc2C(=O)O)cc1 [telmisartan, reference compound]",Lobular Inflammation score 1: number of mice,"[1]; 10 mg/kg PO QD, n = 7",4
same,NAS (mean ± SD),"[1]; 10 mg/kg PO QD, n = 7",2.6 ± 1.0
same,Steatosis score 0: number of mice,"[1]; 10 mg/kg PO QD, n = 7, score 0 = <5%",1
same,Lobular Inflammation score 0: number of mice,"[1]; 10 mg/kg PO QD, n = 7, score 0 = No foci",2
same,Hepatocyte Ballooning score 0: number of mice,"[1]; 10 mg/kg PO QD, n = 7, score 0 = None",2
same,Steatosis score 1: number of mice,"[1]; 10 mg/kg PO QD, n = 7, score 1 = 5-33%",6
same,Hepatocyte Ballooning score 1: number of mice,"[1]; 10 mg/kg PO QD, n = 7, score 1 = Few balloon cells",4
same,Lobular Inflammation score 2: number of mice,"[1]; 10 mg/kg PO QD, n = 7, score 2 = 2-4 foci/200x",1
same,Hepatocyte Ballooning score 2: number of mice,"[1]; 10 mg/kg PO QD, n = 7, score 2 = Many cells/prominent ballooning",1
same,NAFLD Activity Score,"[1]; 10 mg/kg, STAM mice",2.6
same,Sirius red-positive area,"[1]; 10 mg/kg, STAM mice",0.48%
same,fibrosis area (Sirius red-positive area),[1]; [3],significant decreases
same,NAFLD Activity Score (NAS),[1]; [4],significant reduction
same,lobular inflammation and ballooning scores,[1]; [4],lower
same,steatosis (H&E-stained liver sections),[1]; [4],less steatosis
same,Fasting blood glucose,[2]; [5],742 ± 90 mg/dL
same,Plasma insulin,[2]; [5],0.16 ± 0.04 ng/mL
same,Liver free fatty acid,[2]; [6],46.8 ± 10.7 pEq/g liver
same,Liver hydroxyproline,[2]; [6],0.91 ± 0.12 μg/mg total protein
same,Liver triglyceride,[2]; [6],31.7 ± 6.4 mg/g liver
same,Non-fasting blood glucose,[2]; [6],856 ± 62 mg/dL
same,Plasma ApoC-III,[2]; [6],6.2 ± 0.7 gg/mL
same,Plasma CRP,[2]; [6],3.0 ± 0.4 gg/mL
same,Plasma adiponectin,[2]; [6],6.8 ± 0.9 gg/mL
same,Plasma alanine aminotransferase,[2]; [6],39 ± 15 U/L
same,Plasma alkaline phosphatase,[2]; [6],567 ± 104 U/L
same,Plasma aspartate aminotransferase,[2]; [6],121 ± 38 U/L
same,Plasma blood urea nitrogen,[2]; [6],85.0 ± 17.4 mg/dL
same,Plasma creatinine,[2]; [6],0.1 ± 0.0 mg/dL
same,Plasma gamma-glutamyl transferase,[2]; [6],1 ± 0 U/L
same,Plasma ketone body,[2]; [6],8.11 ± 3.27 m M
same,Plasma leptin,[2]; [6],2.9 ± 1.1 ng/mL
same,Plasma total bilirubin,[2]; [6],0.3 ± 0.1 mg/dL
same,Plasma total cholesterol,[2]; [6],208 ± 19 mg/dL
same,Plasma triglyceride,[2]; [6],569 ± 256 mg/dL
same,fasting whole blood glucose concentrations,[2]; [3],significant increase
same,plasma ALP levels,[2]; [7],significant increases
same,whole blood glucose levels,[2]; [8],significant increase
same,plasma BUN levels,[2]; [8],significant increase
same,plasma triglyceride concentrations,[2]; [3],no significant difference
same,liver triglyceride content,[2]; [3],significant decrease
same,plasma total cholesterol concentrations,[2]; [9],significant increases
"CC(C)(CCCCOCCCCC(C)(C)C(=O)O)C(=O)O.[Ca] [6-(5-Carboxy-5-methyl-hexyloxy)-2,2-dimethylhexanoic acid calcium]","micro- and macro-vesicular hepatic fat deposition, hepatocellular ballooning and inflammatory cell infiltration (H&E)",[1]; STAM mice,diminished
same,fibrosis area (Sirius red-positive area),[1]; [3],significant decreases
same,NAFLD Activity Score (NAS),"[1]; vs vehicle-treated STAM mice, gemcabene Form 1 100 mg/kg (trending lower)",no significant difference
same,steatosis score and ballooning score,"[1]; vs vehicle-treated STAM mice, gemcabene Form 1 300 mg/kg",significant decrease
same,NAFLD Activity Score (NAS),[1]; [4],significant reduction
same,lobular inflammation and ballooning scores,[1]; [4],lower
same,steatosis (H&E-stained liver sections),[1]; [4],less steatosis
same,fasting whole blood glucose concentrations,[2]; [3],no significant differences
same,plasma CRP levels,[2]; STAM mice,decreased
same,plasma ALP levels,[2]; [7],significant increases
same,plasma creatinine levels,"[2]; at termination, vs vehicle-treated STAM group, gemcabene Form 1 300 mg/kg",significant increase
same,plasma ALT levels,"[2]; at termination, vs vehicle-treated STAM mice, gemcabene Form 1 100 mg/kg",significant decrease
same,whole blood glucose levels,[2]; [8],no significant differences
same,plasma total cholesterol concentrations,"[2]; vs vehicle-treated STAM mice, gemcabene Form 1 30 mg/kg",no significant difference
same,plasma triglyceride concentrations,[2]; [3],significant decreases
same,liver triglyceride content,[2]; [3],no significant differences
same,plasma total cholesterol concentrations,[2]; [9],significant increases
